Source: paper doi:10.1101/208439v1 (biorxiv, 2017)
Like-named read-outs stand apart in the source and are kept apart here. Each block holds one compound with its values, some of them ahead of it.

Tests used:
NSD2 = target: T1, NSD2 (Homo sapiens, UniProt O96028, T1150A); assay: biochemical; parameters: MTase-Glo bioluminescence methyltransferase assay, full-length NSD2 with HeLa nucleosomes; conditions: read-out: MTase-Glo IC50
T1 construct: full length (residues 2-1365), N-terminal His tag, insect cell/baculovirus
T1 sequence (O96028 2-1365 T1150A): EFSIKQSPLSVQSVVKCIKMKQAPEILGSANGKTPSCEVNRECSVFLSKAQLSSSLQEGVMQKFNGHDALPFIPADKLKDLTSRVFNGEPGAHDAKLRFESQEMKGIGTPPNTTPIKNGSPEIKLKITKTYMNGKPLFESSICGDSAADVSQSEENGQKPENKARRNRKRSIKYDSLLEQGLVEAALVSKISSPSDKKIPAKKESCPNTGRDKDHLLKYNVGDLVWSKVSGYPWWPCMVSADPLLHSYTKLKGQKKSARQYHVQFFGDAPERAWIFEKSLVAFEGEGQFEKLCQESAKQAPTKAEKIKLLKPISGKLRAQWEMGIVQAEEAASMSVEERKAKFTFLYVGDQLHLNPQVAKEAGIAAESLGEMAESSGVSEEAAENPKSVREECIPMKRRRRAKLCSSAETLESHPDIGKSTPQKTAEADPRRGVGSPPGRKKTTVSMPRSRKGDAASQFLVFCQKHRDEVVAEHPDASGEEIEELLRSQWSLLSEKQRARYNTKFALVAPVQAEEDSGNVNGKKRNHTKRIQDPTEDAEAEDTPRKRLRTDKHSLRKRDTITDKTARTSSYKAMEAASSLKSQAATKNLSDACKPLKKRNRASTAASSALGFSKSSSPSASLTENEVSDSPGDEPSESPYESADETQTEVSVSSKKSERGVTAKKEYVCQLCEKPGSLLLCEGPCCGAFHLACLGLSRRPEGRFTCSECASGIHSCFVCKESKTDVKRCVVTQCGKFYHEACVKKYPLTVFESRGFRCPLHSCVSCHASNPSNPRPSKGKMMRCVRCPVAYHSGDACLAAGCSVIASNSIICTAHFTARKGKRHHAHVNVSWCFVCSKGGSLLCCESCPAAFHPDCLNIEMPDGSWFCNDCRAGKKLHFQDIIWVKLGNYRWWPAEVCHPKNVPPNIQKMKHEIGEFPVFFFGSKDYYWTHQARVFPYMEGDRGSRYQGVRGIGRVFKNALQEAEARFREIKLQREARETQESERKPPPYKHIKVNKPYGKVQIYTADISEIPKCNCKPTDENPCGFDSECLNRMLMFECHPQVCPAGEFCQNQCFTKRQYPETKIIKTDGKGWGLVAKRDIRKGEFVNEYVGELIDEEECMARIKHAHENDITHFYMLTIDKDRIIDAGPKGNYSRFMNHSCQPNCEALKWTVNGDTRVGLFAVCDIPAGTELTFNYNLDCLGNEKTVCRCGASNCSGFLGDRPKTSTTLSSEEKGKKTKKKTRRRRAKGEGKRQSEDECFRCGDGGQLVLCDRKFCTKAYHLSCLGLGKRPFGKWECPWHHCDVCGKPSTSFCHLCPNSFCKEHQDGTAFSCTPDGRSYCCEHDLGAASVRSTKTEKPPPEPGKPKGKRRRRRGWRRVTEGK
Description: A major challenge in screening for small molecule inhibitors is that native NSD2 requires nucleosomes as a substrate ([17]). […] Chemical libraries were screened in 3-dose point quantitative high-throughput screening (qHTS) format ([43]) with the Methyltransferase-Glo (MTase-Glo™) methyltransferase bioluminescence assay ([44]). A number of counter and orthogonal assays were also developed to characterize the hits from the primary screen. Confirmed hits were validated with a radiolabeled SAM substrate-based NSD2 activity assay and further interrogated with binding studies by surface plasmon resonance (SPR), methyltransferase profiling, and activity assessments in U-2 OS cells. […] Overall the reaction conditions were very similar.

NSD2 SET domain = target: T2, NSD2 SET domain (Homo sapiens, UniProt O96028); assay: SPR Biacore 8K, single-cycle kinetics, […] model; format: binding
T2 construct: SET domain, residues 934-1241, N-terminal His tag, E. coli
T2 sequence (O96028 934-1241): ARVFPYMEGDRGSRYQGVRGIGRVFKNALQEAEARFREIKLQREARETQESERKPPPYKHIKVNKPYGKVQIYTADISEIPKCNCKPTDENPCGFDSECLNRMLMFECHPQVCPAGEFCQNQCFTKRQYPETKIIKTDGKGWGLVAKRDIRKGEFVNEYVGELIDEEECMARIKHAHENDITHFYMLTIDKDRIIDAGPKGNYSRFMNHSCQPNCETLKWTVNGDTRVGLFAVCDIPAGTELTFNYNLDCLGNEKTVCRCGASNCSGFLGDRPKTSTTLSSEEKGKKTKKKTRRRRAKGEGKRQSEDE

DNMT3b = target: T3, DNMT3b (Homo sapiens, UniProt Q9UBC3); assay: HotSpot [3H]SAM filter-binding methyltransferase assay; format: biochemical
T3 construct: residues 2-853, N-terminal GST fusion, insect cell/baculovirus

MLL2 Complex = MLL2 Complex (Homo sapiens, UniProt O14686); assay: as above; format: biochemical; parameters: gene KMT2D; complex assembled as MLL1; MLL2 here is KMT2D (NM_003482), His tag, E. coli; with WD repeat-containing protein 5; Set1/Ash2 histone methyltransferase complex subunit ASH2; Protein dpy-30 homolog
MLL2 Complex, sequence (O14686 5319-5537): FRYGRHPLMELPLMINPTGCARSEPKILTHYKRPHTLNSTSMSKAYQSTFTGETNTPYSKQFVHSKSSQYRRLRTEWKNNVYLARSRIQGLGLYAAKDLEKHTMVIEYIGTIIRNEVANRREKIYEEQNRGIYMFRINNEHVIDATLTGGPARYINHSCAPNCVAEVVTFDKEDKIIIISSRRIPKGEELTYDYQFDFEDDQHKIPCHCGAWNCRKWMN
MLL2 Complex, sequence (Q15291 whole entry, further chain): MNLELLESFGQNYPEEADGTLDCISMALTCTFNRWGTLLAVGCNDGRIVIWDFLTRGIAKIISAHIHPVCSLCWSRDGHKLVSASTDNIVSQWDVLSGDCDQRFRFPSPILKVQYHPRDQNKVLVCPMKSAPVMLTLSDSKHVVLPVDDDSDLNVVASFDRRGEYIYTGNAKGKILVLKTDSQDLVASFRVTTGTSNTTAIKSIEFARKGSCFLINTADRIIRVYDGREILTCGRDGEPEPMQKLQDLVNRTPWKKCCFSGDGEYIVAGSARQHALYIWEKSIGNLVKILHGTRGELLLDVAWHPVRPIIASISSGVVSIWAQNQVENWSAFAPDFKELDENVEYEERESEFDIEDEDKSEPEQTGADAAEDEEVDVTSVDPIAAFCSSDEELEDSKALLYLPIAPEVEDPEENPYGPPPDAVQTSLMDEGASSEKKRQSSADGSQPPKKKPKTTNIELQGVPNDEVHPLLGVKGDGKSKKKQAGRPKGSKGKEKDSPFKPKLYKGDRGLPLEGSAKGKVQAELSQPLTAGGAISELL
MLL2 Complex, sequence (Q9UBL3 96-628, further chain): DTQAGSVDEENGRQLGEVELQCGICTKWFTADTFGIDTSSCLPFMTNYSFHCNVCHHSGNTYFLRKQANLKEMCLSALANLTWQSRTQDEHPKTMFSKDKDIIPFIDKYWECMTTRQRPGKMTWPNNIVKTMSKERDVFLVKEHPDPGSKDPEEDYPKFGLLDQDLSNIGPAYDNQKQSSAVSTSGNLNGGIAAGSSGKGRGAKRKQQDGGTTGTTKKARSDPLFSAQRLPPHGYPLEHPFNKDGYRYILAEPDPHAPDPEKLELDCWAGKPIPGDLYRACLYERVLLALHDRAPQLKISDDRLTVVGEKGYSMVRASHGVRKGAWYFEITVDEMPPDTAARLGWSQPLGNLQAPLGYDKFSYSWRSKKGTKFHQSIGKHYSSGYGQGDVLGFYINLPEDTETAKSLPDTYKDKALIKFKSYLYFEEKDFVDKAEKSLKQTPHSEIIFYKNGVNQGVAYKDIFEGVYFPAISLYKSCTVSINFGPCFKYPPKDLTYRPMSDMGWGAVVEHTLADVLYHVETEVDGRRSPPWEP
MLL2 Complex, sequence (Q9C005 whole entry, further chain): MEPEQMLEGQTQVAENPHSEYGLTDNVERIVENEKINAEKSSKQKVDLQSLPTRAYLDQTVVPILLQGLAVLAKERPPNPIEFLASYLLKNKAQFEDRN

MLL4 Complex = MLL4 Complex (Homo sapiens, UniProt Q9UMN6); assay: as above; format: biochemical; parameters: gene KMT2B; complex assembled as MLL1; MLL4 here is KMT2B (NM_014727), His tag, E. coli; with WD repeat-containing protein 5; Set1/Ash2 histone methyltransferase complex subunit ASH2; Protein dpy-30 homolog
MLL4 Complex, sequence (Q9C005 whole entry): as the sequence (Q9C005 whole entry, further chain) above
MLL4 Complex, sequence (Q9UBL3 96-628, further chain): as the sequence (Q9UBL3 96-628, further chain) above
MLL4 Complex, sequence (Q15291 whole entry, further chain): as the sequence (Q15291 whole entry, further chain) above
MLL4 Complex, sequence (Q9UMN6 2490-2715): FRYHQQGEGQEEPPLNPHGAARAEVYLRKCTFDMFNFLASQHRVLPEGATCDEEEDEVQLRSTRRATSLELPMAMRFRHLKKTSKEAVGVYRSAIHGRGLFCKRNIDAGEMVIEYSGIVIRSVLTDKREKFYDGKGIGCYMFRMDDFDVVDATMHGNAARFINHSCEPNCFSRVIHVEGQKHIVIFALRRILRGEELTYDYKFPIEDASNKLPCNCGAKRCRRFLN

[1] = nucleosomes, […] SAM, pH […] MgCl2, […] DTT, […] °C, single experiment

IC50 (NSD2; inhibitor): 2.9 µM
Structure (SMILES): O=C1C(Cl)=C(NCCN2CCOCC2)C(=O)c2ncccc21 [DA3003-1]

Kd (NSD2 SET domain): 8.3 µM | IC50 (DNMT3b): > 100 µM | IC50 (NSD2): 15 µM | IC50 (MLL2 Complex): 4.6 µM | IC50 (MLL4 Complex): 0.52 µM
Structure (SMILES): CC1(C)CCC(CN2CCN(c3ccc(C(=O)NS(=O)(=O)c4ccc(NCC5CCOCC5)c([N+](=O)[O-])c4)c(Oc4cnc5[nH]ccc5c4)c3)CC2)=C(c2ccc(Cl)cc2)C1 [ABT-199]

Kd (NSD2 SET domain; immobilized SET domain, pH […] °C, […] MgCl2, […] TCEP, […] DMSO): 8.4 µM | IC50 (DNMT3b; lambda DNA, […] SAM, pH […] EDTA, […] DTT, […] °C, single experiment): 24 µM | IC50 (MLL2 Complex; [1]): 18 µM | IC50 (MLL4 Complex; [1]): 1 µM
Structure (SMILES): COc1cccc(-n2nc(C(=O)O)cc2-c2ccc(C3CCCCC3)c(Cl)c2)c1 [TC LPA5 4]
